In publication PMC3711124 (Biochemistry, 2008):
No end group written: not given here.

Legend:
[1] = Circular dichroism of E5TM in DPC micelles; format: physicochemical; settings: CD, 5°C-95°C in 10°C increments, 15 mM DPC, pH 7.5, 114 μM peptide
AUC = target: the molecule itself; test: AUC

| Molecule | thermal stability of α-helical structure [1] | stoichiometry N (AUC) |
| --- | --- | --- |
| Ac-KKKFLGLVAAMQLLLLLFLLLFFLVYWDHK [E5TM] | Only a small decrease in α-helical structure was observed |  |
| KKKFLGLVAAMQLLLLLFLLLFFLVYWDHK (also: end-caps on C- and N-termini, not given here) [E5TM peptide (transmembrane domain of the bovine papillomavirus E5 protein, residues F9-H34, with fl] |  | 2 |
